Legend:
HepG2 = assay: Cytotoxicity against human HepG2 cells after 72 hrs by Alamar Blue assay; format: cell-based; conditions: HepG2, 72 h
HEK293 = assay: Cytotoxicity against HEK293 cells after 72 hrs by Alamar Blue assay; format: cell-based; conditions: Homo sapiens, HEK293, 72 h
[1] = Cytotoxicity against human HepG2 cells assay at 40 uM after 72 hrs by Alamar Blue assay; format: cell-based; conditions: read-out: INH
Plasmodium falciparum = assay: Antimalarial activity against chloroquine-sensitive Plasmodium falciparum 3D7 ring-stage infected in human erythrocytes after 48 hrs by [3H]hypoxanthine assay; format: functional, organism-based
[2] = Cytotoxicity against HEK293 cells assay at 40 uM after 72 hrs by Alamar Blue assay; format: cell-based; conditions: human, read-out: INH
[3] = Selectivity index, ratio of IC50 for chloroquine-sensitive Plasmodium falciparum 3D7 to IC50 for HEK293 cells
[4] = Selectivity index, ratio of IC50 for chloroquine-sensitive Plasmodium falciparum 3D7 to IC50 for human HepG2 cells

IC50 (Plasmodium falciparum) [µM]	Structure (SMILES)	IC50 (HepG2) [µM]	IC50 (HEK293) [µM]	cytotoxicity at 72 h, 40 µM [1] [%]	cytotoxicity at 72 h, 40 µM [2] [%]	Ratio IC50 [3]	Ratio IC50 [4]
–	CCN(CC)CCCC(C)Nc1ccnc2cc(Cl)ccc12 (centres undefined) [CHLOROQUINE]	12.9	48	–	–	–	–
0.41	COC1C(Br)=CO[C@@]2(C=C1Br)ON=C(C(=O)NCCCOc1c(Br)cc(CC[N+](C)(C)C)cc1Br)[C@@H]2O.O=C([O-])C(F)(F)F (some centres undefined) [PSAMMAPLYSIN H]	> 40	> 40	33	35	>97	>97
1.92	CNCCc1cc(Br)c(OCCCNC(=O)C2=NO[C@@]3(C=C(Br)C(OC)C(Br)=CO3)[C@H]2O)c(Br)c1 (some centres undefined) [PSAMMAPLYSINS F]	3.7	10.9	–	–	5	2
5.22	COC1C(Br)=CO[C@@]2(C=C1Br)ON=C(C(=O)NCCCOc1c(Br)cc(CCN(C)C(N)=O)cc1Br)[C@@H]2O (some centres undefined) [PSAMMAPLYSINS G]	17.4	18.7	–	–	3	3
